{
  "source": "patent US20230372313A1",
  "about": "“METHODS FOR REDUCING GLYCOSPHINGOLIPID CONCENTRATION IN BRAIN TISSUE AND METHODS OF TREATMENT OF NEURODEGENERATIVE DISEASES INVOLVING THE SAME” (GENZYME CORPORATION, priority 2020, published 2023)",
  "assay_type_in_all_cases": "in vivo, human",
  "key": {"[1]": {"test": "Safety and tolerability: adverse events in the treatment-emergent period, part 1 of phase 2 trial in PD patients carrying a GBA mutation", "description": "This clinical trial is a 3-year, phase 2, randomised, double-blinded, placebo-controlled, multicenter study of Compound 2 in participants with early-stage PD carrying a GBA mutation. The trial is divided into 2 consecutive parts: part 1 is a dose escalation study (described below) of safety, pharmacokinetics, and pharmacodynamics of 3 doses using 3 sequential cohorts; part 2 is an ongoing 2-arm study of efficacy and safety of Compound 2.\nParticipants were randomised to 3 doses of once-daily orally administered Compound 2 or placebo, in sequential cohort design, and were followed up to 36 weeks (52 weeks for Japanese participants). Participants in the low-dose group received 4 mg of Compound 2 as a once daily oral dose; participants in the mid-dose group received 8 mg of Compound 2 a once daily oral dose; and participants in the high-dose group received 15 mg of Compound 2 a once daily oral dose.\nThe primary outcome in part 1 of trial was an assessment of safety and tolerability of orally administered Compound 2 versus placebo through Week 4 (primary analysis period for each sequential cohort). In addition, safety assessments were recorded for every 4 weeks until completion. Safety was assessed by physical examination; neurological examination; clinical laboratory evaluations conducted at a central laboratory, including haematology, biochemistry, urinalysis, and serology tests; vital signs; assessment of AEs and concomitant medication; ophthalmological examination; and electrocardiogram. AEs, serious Aes, and AEs of special interest (AESI) were recorded throughout the study. Serious AEs were defined as fatal, or life threatening, requiring or prolonging inpatient hospitalisation, or disabling/incapacitating, congenital anomalies, or medically important events (e.g. malignancies or chronic neurodegenerative diseases). AESI included new or worsening lens opacities and cataracts (as assessed by ophthalmology evaluations at screening and at Weeks 4, 12, 28, 36 [Weeks 4, 12, 36, 52 for Japanese participants]), pregnancy events, increase of alanine aminotransferase, or symptomatic overdose with study drug.\nDuring the study, 29 participants were randomised to Compound 2 (Japan, n=9; ROW, n=13) or placebo (n=3; n=4). Eight (89%) Japanese and 12 (92%) ROW Compound 2-treated participants experienced ≥1 adverse event (AE) versus 2 (67%) and 4 (100%) participants from the respective placebo groups. […] Two Compound 2-treated ROW participants discontinued due to AEs (confusional state and panic attack)."}, "[2]": {"tested_on": "participants with early-stage PD carrying a GBA mutation", "test": "MDS-UPDRS (parts II and III) scores in OFF state", "settings": "Combined Japan + ROW, all Compound 2 doses, N = 22, OFF state", "experimental": "MDS-UPDRS (parts II [motor experiences of daily living; 13 items] and III [motor examination; 18 items]) scores are reported through Week 8. The MDS-UPDRS scale was assessed during the OFF state, with no PD medication taken for ≥12 hours prior.\nThe changes from baseline in MDS-UPDRS (parts II and III) scores at week 8 were assessed for participants in part 1 of the clinical study described in Example 2."}, "glucosylceramide (GL-1)": {"tested_on": "glucosylceramide (GL-1)", "test": "Plasma glucosylceramide (GL-1) levels, pharmacodynamics", "description": "Analyses were based on all available data from participants who enrolled in part 1 of the trial and were randomised to receive either Compound 2 or placebo for up to 52 weeks for Japanese participants and 36 weeks for the ROW population. As part 1 was an exploratory, dose-escalation study, the sample size was not based on a statistical power calculation. Participants included in the primary safety analyses were those who were randomized and received at least one dose of Compound 2 or placebo. A data monitoring committee was responsible for overseeing the safety of patients and the risk/benefit ratio throughout the study. Duration of exposure to Compound 2 was different among the doses, as per the sequential cohort design, with the low- and high-dose cohorts commencing the study first and last, respectively. For pharmacokinetics, plasma parameters were calculated using noncompartmental methods, from plasma Compound 2 concentrations obtained after single dose administration. AUC0-24 and AUC0-48 were calculated using the trapezoidal method over a predefined time period of 24 hours or 48 hours, respectively. CLss/F was calculated using the following equation: CLss/F=Dose/AUCτ, where τ is the dosing interval. For pharmacodynamics, percent reduction of plasma or CSF GL-1 from baseline was calculated as (value−baseline)/baseline×100. Formal statistical testing was not conducted on MDS-UPDRS scale assessments.\nIn exploratory analyses, Compound 2 pharmacodynamics in plasma and CSF were assessed by mean percent change in GL-1 levels from baseline through Week 4. GL-1 levels were assessed in plasma and CSF samples collected at the day of randomisation and Week 4, with plasma GL-1 levels also assessed at Week 2.\nConcentrations of GL-1 in plasma and CSF were determined using a liquid chromatography tandem mass spectrometry method. Secondary pharmacokinetic outcomes were evaluated over a 4-week period of once-daily Compound 2 dosing (Table 7)."}, "[3]": {"settings": "Japan, High 15 mg once daily oral, n = 3"}, "[4]": {"settings": "Japan, Low 4 mg once daily oral, n = 3"}, "[5]": {"settings": "Japan, Mid 8 mg once daily oral, n = 3"}, "[6]": {"settings": "ROW, High 15 mg once daily oral, n = 4"}, "[7]": {"settings": "ROW, Low 4 mg once daily oral, n = 4"}, "[8]": {"settings": "ROW, Mid 8 mg once daily oral, n = 5"}},
  "data": [
    {"smiles": "CC(C)(NC(=O)O[C@@H]1CN2CCC1CC2)c1csc(-c2ccc(F)cc2)n1", "note": "[Compound 2, (S)-quinuclidin-3-yl (2-(2-(4-fluorophenyl)thiazol-4-yl)propan-2-yl)carbamate]", "values": [
      {"measurement": "Number of participants with AEs: Infections and infestations", "setting": "[1]; [3]", "value": 1},
      {"measurement": "Number of participants with AEs: Infections and infestations", "setting": "[1]; [4]", "value": 2},
      {"measurement": "Number of participants with AEs: Infections and infestations", "setting": "[1]; [5]", "value": 0},
      {"measurement": "Number of participants with AEs: Infections and infestations", "setting": "[1]; [6]", "value": 1},
      {"measurement": "Number of participants with AEs: Infections and infestations", "setting": "[1]; [7]", "value": 0},
      {"measurement": "Number of participants with AEs: Infections and infestations", "setting": "[1]; [8]", "value": 0},
      {"measurement": "serious AEs or deaths", "setting": "[1]; all participants, part 1", "value": "no serious AEs or deaths occurred"},
      {"measurement": "participants who discontinued due to AEs (confusional state and panic attack)", "setting": "[1]; human, in vivo", "value": "Two"},
      {"measurement": "MDS-UPDRS (part II + III) score, Change from baseline at week 8 (mean)", "setting": "[2]", "value": "−2.9"},
      {"measurement": "Plasma GL-1, Week 2 (mean)", "setting": "glucosylceramide (GL-1); [3]", "value": 1.231, "unit": "µg/mL"},
      {"measurement": "Plasma GL-1, Week 2, Change from baseline (%) (mean)", "setting": "glucosylceramide (GL-1); [3]", "value": "−77.2", "unit": "%"},
      {"measurement": "Plasma GL-1, Week 2, Change from baseline (mean)", "setting": "glucosylceramide (GL-1); [3]", "value": -4.285, "unit": "µg/mL"},
      {"measurement": "Plasma GL-1, Week 4 (mean)", "setting": "glucosylceramide (GL-1); [3]", "value": 1.149, "unit": "µg/mL"},
      {"measurement": "Plasma GL-1, Week 4, Change from baseline (%) (mean)", "setting": "glucosylceramide (GL-1); [3]", "value": "−79.3", "unit": "%"},
      {"measurement": "Plasma GL-1, Week 4, Change from baseline (mean)", "setting": "glucosylceramide (GL-1); [3]", "value": -4.368, "unit": "µg/mL"},
      {"measurement": "Plasma GL-1, Week 2 (mean)", "setting": "glucosylceramide (GL-1); [4]", "value": 2.230, "unit": "µg/mL"},
      {"measurement": "Plasma GL-1, Week 2, Change from baseline (%) (mean)", "setting": "glucosylceramide (GL-1); [4]", "value": "−63.6", "unit": "%"},
      {"measurement": "Plasma GL-1, Week 2, Change from baseline (mean)", "setting": "glucosylceramide (GL-1); [4]", "value": -3.797, "unit": "µg/mL"},
      {"measurement": "Plasma GL-1, Week 4 (mean)", "setting": "glucosylceramide (GL-1); [4]", "value": 2.097, "unit": "µg/mL"},
      {"measurement": "Plasma GL-1, Week 4, Change from baseline (%) (mean)", "setting": "glucosylceramide (GL-1); [4]", "value": "−66.1", "unit": "%"},
      {"measurement": "Plasma GL-1, Week 4, Change from baseline (mean)", "setting": "glucosylceramide (GL-1); [4]", "value": -3.930, "unit": "µg/mL"},
      {"measurement": "Plasma GL-1, Week 2 (mean)", "setting": "glucosylceramide (GL-1); [5]", "value": 1.507, "unit": "µg/mL"},
      {"measurement": "Plasma GL-1, Week 2, Change from baseline (%) (mean)", "setting": "glucosylceramide (GL-1); [5]", "value": "−67.5", "unit": "%"},
      {"measurement": "Plasma GL-1, Week 2, Change from baseline (mean)", "setting": "glucosylceramide (GL-1); [5]", "value": -3.133, "unit": "µg/mL"},
      {"measurement": "Plasma GL-1, Week 4 (mean)", "setting": "glucosylceramide (GL-1); [5]", "value": 1.340, "unit": "µg/mL"},
      {"measurement": "Plasma GL-1, Week 4, Change from baseline (%) (mean)", "setting": "glucosylceramide (GL-1); [5]", "value": "−70.7", "unit": "%"},
      {"measurement": "Plasma GL-1, Week 4, Change from baseline (mean)", "setting": "glucosylceramide (GL-1); [5]", "value": -3.300, "unit": "µg/mL"},
      {"measurement": "mean reduction in plasma GL-1 at Week 4", "setting": "glucosylceramide (GL-1); Japanese cohort, high-dose 15 mg", "value": 79.3, "unit": "%"},
      {"measurement": "mean reduction in plasma GL-1 at Week 4", "setting": "glucosylceramide (GL-1); Japanese cohort, low-dose 4 mg", "value": 66.1, "unit": "%"},
      {"measurement": "mean reduction in plasma GL-1 at Week 4", "setting": "glucosylceramide (GL-1); Japanese cohort, medium-dose 8 mg", "value": 70.7, "unit": "%"},
      {"measurement": "mean reduction in plasma GL-1 at Week 4", "setting": "glucosylceramide (GL-1); ROW participants, high-dose 15 mg", "value": 77.7, "unit": "%"},
      {"measurement": "mean reduction in plasma GL-1 at Week 4", "setting": "glucosylceramide (GL-1); ROW participants, low-dose 4 mg", "value": 59.0, "unit": "%"},
      {"measurement": "mean reduction in plasma GL-1 at Week 4", "setting": "glucosylceramide (GL-1); ROW participants, medium-dose 8 mg", "value": 71.0, "unit": "%"},
      {"measurement": "Plasma GL-1, Week 2 (mean)", "setting": "glucosylceramide (GL-1); [6]", "value": 1.469, "unit": "µg/mL"},
      {"measurement": "Plasma GL-1, Week 2, Change from baseline (%) (mean)", "setting": "glucosylceramide (GL-1); [6]", "value": "−73.9", "unit": "%"},
      {"measurement": "Plasma GL-1, Week 2, Change from baseline (mean)", "setting": "glucosylceramide (GL-1); [6]", "value": -4.119, "unit": "µg/mL"},
      {"measurement": "Plasma GL-1, Week 4 (mean)", "setting": "glucosylceramide (GL-1); [6]", "value": 1.253, "unit": "µg/mL"},
      {"measurement": "Plasma GL-1, Week 4, Change from baseline (%) (mean)", "setting": "glucosylceramide (GL-1); [6]", "value": "−77.7", "unit": "%"},
      {"measurement": "Plasma GL-1, Week 4, Change from baseline (mean)", "setting": "glucosylceramide (GL-1); [6]", "value": -4.335, "unit": "µg/mL"},
      {"measurement": "Plasma GL-1, Week 2 (mean)", "setting": "glucosylceramide (GL-1); [7]", "value": 2.340, "unit": "µg/mL"},
      {"measurement": "Plasma GL-1, Week 2, Change from baseline (%) (mean)", "setting": "glucosylceramide (GL-1); [7]", "value": "−54.3", "unit": "%"},
      {"measurement": "Plasma GL-1, Week 2, Change from baseline (mean)", "setting": "glucosylceramide (GL-1); [7]", "value": -2.815, "unit": "µg/mL"},
      {"measurement": "Plasma GL-1, Week 4 (mean)", "setting": "glucosylceramide (GL-1); [7]", "value": 2.093, "unit": "µg/mL"},
      {"measurement": "Plasma GL-1, Week 4, Change from baseline (%) (mean)", "setting": "glucosylceramide (GL-1); [7]", "value": "−59.0", "unit": "%"},
      {"measurement": "Plasma GL-1, Week 4, Change from baseline (mean)", "setting": "glucosylceramide (GL-1); [7]", "value": -3.063, "unit": "µg/mL"},
      {"measurement": "Plasma GL-1, Week 2 (mean)", "setting": "glucosylceramide (GL-1); [8]", "value": 1.644, "unit": "µg/mL"},
      {"measurement": "Plasma GL-1, Week 2, Change from baseline (%) (mean)", "setting": "glucosylceramide (GL-1); [8]", "value": "−69.9", "unit": "%"},
      {"measurement": "Plasma GL-1, Week 2, Change from baseline (mean)", "setting": "glucosylceramide (GL-1); [8]", "value": -3.830, "unit": "µg/mL"},
      {"measurement": "Plasma GL-1, Week 4 (mean)", "setting": "glucosylceramide (GL-1); [8]", "value": 1.578, "unit": "µg/mL"},
      {"measurement": "Plasma GL-1, Week 4, Change from baseline (%) (mean)", "setting": "glucosylceramide (GL-1); [8]", "value": "−71.0", "unit": "%"},
      {"measurement": "Plasma GL-1, Week 4, Change from baseline (mean)", "setting": "glucosylceramide (GL-1); [8]", "value": -3.896, "unit": "µg/mL"},
      {"measurement": "decrease of plasma GL-1 levels from baseline versus dose", "setting": "glucosylceramide (GL-1); over 4 weeks", "value": "dose-dependent manner"}
    ]}
  ]
}
